As a reminder, the melting point is the temperature of the solid-liquid transition.

These results are taken from US20040152904A1, “Delta1 pyrrolines” (priority 2001, published 2004).

Like-named read-outs stand apart in the source and are kept apart here.

The nature of series [1]: logP by HPLC (EEC Directive 79/831 Annex V.A8, reversed-phase C 18). The series is classed as physicochemical. The conditions noted are these: reversed-phase HPLC column (C 18). How it is done: The stated logP values were determined in accordance with EEC Directive 79/831 Annex V.A8 by HPLC (High Performance Liquid Chromatography) using a reversed-phase column (C 18). Temperature: 43° C.
In the acidic range, the determination was carried out at pH 2.3 using the mobile phases 0.1% aqueous phosphoric acid and acetonitrile; linear gradient from 10% acetonitrile to 90% acetonitrile.
In the neutral range, the determination was carried out at pH 7.5 using the mobile phases 0.01 molar aqueous phosphate buffer solution and acetonitrile; linear gradient from 10% acetonitrile to 90% acetonitrile.
Calibration was carried out using unbranched alkan-2-ones (having 3 to 16 carbon atoms) with known logP values (determination of the logP values by the retention times using linear interpolation between two successive alkanones).

In series [2] the test system is Amblyomma variegatum or A. hebraeum, nymphs which have sucked themselves full. In words: Nymphecdysis test on polyphagous ticks. The series is classed as in vivo. Conditions: for activity in the nymphecdysis test: in vivo; for Effect on ecdysis in % after 48h: 100 ppm active compound, nymphs immersed for 1 minute. How it is done:
Nymphecdysis Test on Polyphagous Ticks
Test animals: Amblyomma variegatum or A. hebraeum, nymphs which have sucked themselves full
Solvent: Dimethyl sulphoxide
20 mg of active compound are dissolved in 1 ml of dimethyl sulphoxide, more dilute concentrations are prepared by dilution with distilled water.
10 nymphs which have sucked themselves full are immersed for 1 minute into the preparation of active compound to be tested. The animals are transferred to petri dishes (∅ 9.5 cm) fitted with filter discs and covered. […]
100% means that none of the animals have undergone normal ecdysis. 0% means that all animals have undergone ecdysis.
In this test, for example, the compounds 4 and 5 of the preparation examples show good activity.

Series [3] concerns Heliothis virescens caterpillars. As to the kind of experiment: Heliothis virescens test. The class given is in vivo. Conditions: 40 ppm active compound, soyabean shoots dipped. How it is done: (§1) Heliothis virescens Test Solvent: 30 parts by weight of dimethylformamide Emulsifier: 1 part by weight of alkylaryl polyglycol ether To produce a suitable preparation of active compound, 1 part by weight of active compound is mixed with the stated amounts of solvent and emulsifier, and the concentrate is diluted with emulsifier-containing water to the desired concentration. Soyabean shoots (Glycine max) are treated by being dipped into the preparation of active compound of the desired concentration and are populated with Heliothis virescens caterpillars whilst the leaves are still moist. After the desired period of time, the kill in % is determined. 100% means that all caterpillars have been killed; 0% means that none of the caterpillars have been killed.

Series [4] relates to larvae of the mustard beetle (Phaedon cochleariae). As to the kind of experiment: Phaedon larvae test. Conditions: 1000 ppm active compound, cabbage leaves dipped. The class given is in vivo. The procedure:
as §1, with “Phaedon larvae” for “Heliothis virescens”, “Cabbage leaves (Brassica oleracea)” for “Soyabean shoots (Glycine max)”, “larvae of the mustard beetle (Phaedon cochleariae)” for “Heliothis virescens caterpillars”, “beetle larvae” for “caterpillars”

In series [5] the test system is army worm (Spodoptera frugiperda) caterpillars. In words: Spodoptera frugiperda test. The series is classed as in vivo. The conditions noted are these: 1000 ppm active compound, cabbage leaves dipped. The procedure: as §1, with “Spodoptera frugiperda Test” for “Heliothis virescens Test”, “concentration. Cabbage leaves (Brassica oleracea)” for “concentration. Soyabean shoots (Glycine max)”, “with army worm (Spodoptera frugiperda)” for “with Heliothis virescens”

Series [6] deals with greenhouse red spider mite (tetranychus urticae). In words: Tetranychus test (OP-resistant/dip treatment). The class given is in vivo. Conditions: 100 ppm active compound, bean plants dipped. The procedure:
Tetranychus Test (OP-Resistant/Dip Treatment)
Solvent: 30 parts by weight of dimethylformamide
Emulsifier: 1 part by weight of alkylaryl polyglycol ether
To produce a suitable preparation of active compound, 1 part by weight of active compound is mixed with the stated amounts of solvent and emulsifier, and the. concentrate is diluted with emulsifier-containing water to the. desired concentration.
Bean plants (Phaseolus vulgaris) which are heavily infested by all stages of the greenhouse red spider mite (tetranychus urticae) are dipped into a preparation of active compound of the desired concentration.
After the desired period of time, the effect in % is determined. 100% means that all spider mites have been killed; 0% means that none of the spider mites have been killed.

Where [7] appears, read: pH 2.3, 0.1% aqueous phosphoric acid / acetonitrile, 43° C., read-out: logP (pH 2.3).
Setting [8] is: pH not printed at the place, read-out: logP.

Take `N#Cc1ccc(-c2ccccc2C2CCC(=O)N2)cc1` (centres unmarked) [2′-(5-oxo-2-pyrrolidinyl)-1,1′-biphenyl-4carbonitrile]: in series [1] (setting [7]), the chromatographic logP was 1.94.

As to `CCCn1nnc(-c2ccc(C3CCC(c4c(F)cccc4F)=N3)cc2)n1` (centres unmarked) [Example 1], the chromatographic logP in series [1] (setting [7]) came out at 2.61.

Compound `CC(C)(C)n1nnc(-c2ccc(-c3ccc(C4CCC(c5c(F)cccc5F)=N4)cc3)cc2)n1` (centres unmarked) [Example 2, 2-tert-butyl-5-{4′-[5-(2,6-difluorophenyl)-3,4dihydro-2H-pyrrol-2-yl]-1,1′-biphenyl-4-yl}-2H-tetrazole] came in with a melting point of 96 °C. The chromatographic logP in series [1] (setting [7]) amounted to 4.14.

In the case of `CC(C)(C)n1nnc(-c2ccc(-c3ccc(C4CCC(c5c(F)cccc5F)=N4)cc3)cc2)n1` (centres unmarked) [Example 3, 2-tert-butyl-5-{4′-[5-(2,6-difluorophenyl)-3,4dihydro-2H-pyrrol-2-yl]-1′-biphenyl-4-yl}-2H-tetrazole], the chromatographic logP in series [1] (setting [8]) was 4.14.

Regarding `CCOCn1nnc(-c2ccc(-c3ccc(C4CCC(c5c(F)cccc5F)=N4)cc3)cc2)n1` (centres unmarked) [Example 4, 5-{4′-[5-(2,6-difluorophenyl)-3,4-dihydro-2H-pyrrol-2-yl]-1,1′-biphenyl-4-yl}-2-(ethoxymethyl)-2H-tetrazole], the “activity in the nymphecdysis test” value in series [2] is given as “good activity”. In addition, the chromatographic logP in series [1] (setting [8]) was 3.4.

`CCn1nnc(-c2ccc(-c3ccc(C4CCC(c5c(F)cccc5F)=N4)cc3)cc2)n1` (centres unmarked) [Example 5, 5-{4′-[5-(2,6-difluorophenyl)-3,4-dihydro-2Hpyrrol-2-yl]-1,1′-biphenyl-4-yl}-2-ethyl-2H-tetrazole]: the “activity in the nymphecdysis test” value in series [2] is recorded as “good activity”. The chromatographic logP in series [1] (setting [7]) came to 3.21.

`CC(C)(C)n1nnc(-c2ccc(B(O)O)cc2)n1` [Example V-1, 4-[(2-tert-butyl)-2H-tetrazol-5-yl]phenylboronic acid]: the chromatographic logP in series [1] (setting [7]) is 2.01.

`OB(O)c1ccc(-c2nn[nH]n2)cc1` [Example V-2, 4-(2H-tetrazol-5-yl)-phenylboronic acid]: the chromatographic logP in series [1] (setting [7]) is 0.19.

Turning to `Fc1cccc(F)c1C1=NC(c2ccc(-c3nn[nH]n3)cc2)CC1` (centres unmarked) [I-a-1], in series [1] (setting [7]), the chromatographic logP came out at 1.28.

For `CC(C)(C)n1nnc(-c2ccc(Br)cc2)n1` [VII-1, 2-tert-butyl-5-(4-bromo-phenyl)-1(2)H-tetrazole], the chromatographic logP in series [1] (setting [7]) came to 4.23.

In the case of `CCOCn1nnc(-c2ccc(Br)cc2)n1` [VII-2, 2-ethoxymethyl-5-(4-bromo-phcnyl)-1(2)H tetrazole], the chromatographic logP in series [1] (setting [7]) was found to be 3.42.

Consider `CCn1nnc(-c2ccc(Br)cc2)n1` [VII-3, 2-ethyl-5-(4-bromo-phenyl)-1(2)H-tetrazole], for which the chromatographic logP in series [1] (setting [7]) is 3.2.

`N#Cc1ccc(C2CCC(c3c(F)cccc3F)=N2)cc1` (centres unmarked) [VIII-1, 4-[5-(2,6-difluorophenyl)-3,4-dihydro-2Hpyrrol-2-yl]benzonitrile] displayed a melting point of 57 °C. For the same compound, the chromatographic logP in series [1] (setting [7]) amounted to 2.11.

For `N#Cc1ccc(-c2ccc(C3CCC(c4c(F)cccc4F)=N3)cc2)cc1` (centres unmarked) [VIII-2, 4′-[5-(2,6-difluorophenyl)-3,4-dihydro-2H-pyrrol-2-yl]-1,1′-biphenyl-4carbonitrile], the melting point is 123 °C. Also, the chromatographic logP in series [1] (setting [7]) turned out to be 2.84.

As for `CC(C)(C)OC(=O)N1C(=O)CCC1c1ccc(C#N)cc1` (centres unmarked) [XI-1, tert-butyl-2-(4-cyanophenyl)-5-oxo-1-pyrrolidinecarboxylate], the chromatographic logP in series [1] (setting [7]) amounted to 2.12.

Turning to `CC(C)(C)OC(=O)N1C(=O)CCC1c1ccc(-c2ccc(C#N)cc2)cc1` (centres unmarked) [XI-2, tert-butyl 2(4′-cyano-1,1′-biphenyl-4-yl)-5-oxo-1-pyrrolidinecarboxylate], the melting point came out at 152 °C. Also, the chromatographic logP in series [1] (setting [7]) is 3.03.

As for `N#Cc1ccc(C2CCC(=O)N2)cc1` (centres unmarked) [XIII-a-1, 4-(5-oxo-2-pyrrolidinyl)benzonitrile], the melting point came to 155 °C. The chromatographic logP in series [1] (setting [7]) was determined as 0.96.

In the case of `N#Cc1ccc(-c2ccc(C3CCC(=O)N3)cc2)cc1` (centres unmarked) [XIII-b-1, 4′-(5-oxo-2-pyrrolidinyl)-1,1′-biphenyl-4carbonitrile], the chromatographic logP in series [1] (setting [7]) is 1.92.

Take `CC(C)(C)n1nnc(-c2ccc(-c3ccc(C4CCC(c5c(F)cccc5F)=N4)cc3)cc2)n1` (centres unmarked) [drawing 54]: the “Kill rate in % after 6d” value in series [3] is recorded as 100%.

With `CCn1nnc(-c2ccc(-c3ccc(C4CCC(c5c(F)cccc5F)=N4)cc3)cc2)n1` (centres unmarked) [drawing 55], in series [3], the “Kill rate in % after 6d” value is given as 100%.

As to `CC(C)(C)n1nnc(-c2ccc(-c3ccc(C4CCC(c5c(F)cccc5F)=N4)cc3)cc2)n1` (centres unmarked) [drawing 56], the “Kill rate in % after 7d” value in series [4] came out at 100%.

Consider `CCCn1nnc(-c2ccc(C3CCC(c4c(F)cccc4F)=N3)cc2)n1` (centres unmarked) [drawing 57], for which the “Kill rate in % after 7d” value in series [4] was determined as 100%.

`CCn1nnc(-c2ccc(-c3ccc(C4CCC(c5c(F)cccc5F)=N4)cc3)cc2)n1` (centres unmarked) [drawing 58]: the “Kill rate in % after 7d” value in series [4] is listed as 100%.

Turning to `CCOCn1nnc(-c2ccc(-c3ccc(C4CCC(c5c(F)cccc5F)=N4)cc3)cc2)n1` (centres unmarked) [drawing 59], the “Kill rate in % after 7d” value in series [4] is on record as 100%.

For the compound `CC(C)(C)n1nnc(-c2ccc(-c3ccc(C4CCC(c5c(F)cccc5F)=N4)cc3)cc2)n1` (centres unmarked) [drawing 63], the “Kill rate in % after 7d” value in series [5] is listed as 100%.

As to `CCCn1nnc(-c2ccc(C3CCC(c4c(F)cccc4F)=N3)cc2)n1` (centres unmarked) [drawing 64], in series [5], the “Kill rate in % after 7d” value was 100%.

For `CCn1nnc(-c2ccc(-c3ccc(C4CCC(c5c(F)cccc5F)=N4)cc3)cc2)n1` (centres unmarked) [drawing 65], in series [5], the “Kill rate in % after 7d” value is 100%.

On to `CCOCn1nnc(-c2ccc(-c3ccc(C4CCC(c5c(F)cccc5F)=N4)cc3)cc2)n1` (centres unmarked) [drawing 66], for which, in series [5], the “Kill rate in % after 7d” value turned out to be 100%.

Regarding `CC(C)(C)n1nnc(-c2ccc(-c3ccc(C4CCC(c5c(F)cccc5F)=N4)cc3)cc2)n1` (centres unmarked) [drawing 67], the “Kill rate in % after 7d” value in series [6] was determined as 98%.

On to `CCCn1nnc(-c2ccc(C3CCC(c4c(F)cccc4F)=N3)cc2)n1` (centres unmarked) [drawing 68], for which the “Kill rate in % after 7d” value in series [6] came out at 90%.

`CCn1nnc(-c2ccc(-c3ccc(C4CCC(c5c(F)cccc5F)=N4)cc3)cc2)n1` (centres unmarked) [drawing 69]: in series [6], the “Kill rate in % after 7d” value amounted to 98%.

As for `CCOCn1nnc(-c2ccc(-c3ccc(C4CCC(c5c(F)cccc5F)=N4)cc3)cc2)n1` (centres unmarked) [drawing 70], in series [6], the “Kill rate in % after 7d” value was 98%.

Regarding `CCn1nnc(-c2ccc(-c3ccc(C4CCC(c5c(F)cccc5F)=N4)cc3)cc2)n1` (centres unmarked) [drawing 73], in series [2], the “Effect on ecdysis in % after 48h” value stood at 100%.

On to `CCOCn1nnc(-c2ccc(-c3ccc(C4CCC(c5c(F)cccc5F)=N4)cc3)cc2)n1` (centres unmarked) [drawing 74], for which the “Effect on ecdysis in % after 48h” value in series [2] was determined as 100%.
